Molecules are shown by their SMILES. pIC50: −log10 of the molar value.

The target in the test is T1, Human V1b receptor (Homo sapiens, UniProt P47901).
T1 sequence (P47901 1-424): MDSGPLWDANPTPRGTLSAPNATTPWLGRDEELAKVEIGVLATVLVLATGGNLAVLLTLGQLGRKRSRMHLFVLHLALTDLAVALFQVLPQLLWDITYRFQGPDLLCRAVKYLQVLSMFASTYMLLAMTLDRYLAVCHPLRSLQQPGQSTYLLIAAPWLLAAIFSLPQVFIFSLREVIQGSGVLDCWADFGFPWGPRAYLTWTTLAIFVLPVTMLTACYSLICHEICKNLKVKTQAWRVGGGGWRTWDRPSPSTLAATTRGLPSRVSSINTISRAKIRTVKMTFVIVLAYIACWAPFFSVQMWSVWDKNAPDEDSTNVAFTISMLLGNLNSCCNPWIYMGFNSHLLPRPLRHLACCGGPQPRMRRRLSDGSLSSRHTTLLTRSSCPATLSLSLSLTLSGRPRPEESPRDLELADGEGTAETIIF
Description: Binding test for V1b receptor ([3H]AVP displacement, crude membrane preparation). More on the design: expressed in transfected cells; host or cells: 293FT cells (Invitrogen), transient expression; crude membrane preparation. Conditions: [3H]AVP 0.4 to 1 nmol/L; membranes of 293FT cells transiently expressing human V1b receptor; room temperature, 60 minutes. The procedure: Binding Test for V1b Receptor
Human V1b receptor was transiently expressed in 293FT cells (Invitrogen). The cells were collected and were homogenated in a 15 mmol/L tris-hydrochloric acid buffer (pH 7.4, containing 2 mmol/L magnesium chloride, 0.3 mmol/L ethylenediaminetetracetic acid, and 1 mmol/L glycol ether diaminetetraacetic acid). The resulting homogenate was centrifuged at 50,000×g at 4° C. for 20 minutes. The precipitate was resuspended in a 75 mmol/L tris-hydrochloric acid buffer (pH 7.4, containing 12.5 mmol/L magnesium chloride, 0.3 mmol/L ethylenediaminetetracetic acid, 1 mmol/L glycol ether diamine tetraacetic acid, and 250 mmol/L sucrose) to give a crude membrane preparation, which was stored at −80° C. until the binding test. In the binding test, the crude membrane preparation was diluted with a 50 mmol/L tris-hydrochloric acid buffer (pH 7.4, containing 10 mmol/L magnesium chloride and 0.1% bovine serum albumin), and test compound was serially diluted with DMSO. The diluted crude membrane preparation was incubated with each test compound (final concentration of 0.01 nmol/L to 1 μmol/L) and [^3H]AVP (final concentration: 0.4 to 1 nmol/L) at room temperature for 60 minutes. After the incubation, the mixture was suction filtered through a GF/C filter pretreated with 0.3% polyethyleneimine. The GF/C filter was dried, and a scintillator was added thereto. The radioactivity remaining on the filter was measured using TopCount (PerkinElmer Inc.). The radioactivity in the presence of 10 μmol/L of unlabeled AVP was defined as 0%, and the radioactivity in the absence of unlabeled AVP was defined as 100%. A dose-response curve was plotted from radioactivities in the presence of a test compound at various concentrations, and the 50% inhibitory concentration (IC50 value) of the compound was calculated.
The term pIC50 denotes the negative decadic logarithm of the IC50, by convention in mol/L. In the case of `CC(C)(CO)NC(=O)Cn1c(-c2cccc(Cl)c2)nn(-c2ccc(CCN3CCOCC3)cc2)c1=O` [Ad-3, 2-[3-(3-Chlorophenyl)-1-{4-[2-(morpholin-4-yl)ethyl]phenyl}-5-oxo-1,5-dihydro-4H-1,2,4-triazol-4-yl]-N-(1-hydroxy-2-methylpropan-2-yl)acetamide], the pIC50 is 7.26.

In turn, `O=C(Cn1c(-c2cccc(Cl)c2)nn(-c2ccc(CCN3CCOCC3)cc2)c1=O)NC1CCC1` [Ad-4, 2-[3-(3-Chlorophenyl)-1-{4-[2-(morpholin-4-yl)ethyl]phenyl}-5-oxo-1,5-dihydro-4H-1,2,4-triazol-4-yl]-N-cyclobutylacetamide] gave a negative logarithm of the IC50 (pIC50) of 6.99.

The compound `O=C(Cn1c(-c2cccc(Cl)c2)nn(-c2ccc(CCN3CCOCC3)cc2)c1=O)NC1COC1` [Ad-5, 2-[3-(3-Chlorophenyl)-1-{4-[2-(morpholin-4-yl)ethyl]phenyl}-5-oxo-1,5-dihydro-4H-1,2,4-triazol-4-yl]-N-(oxetan-3-yl)acetamide] showed a pIC50 of 7.01. The pIC50 values of the last two compounds are within 0.2 log units of each other.

Regarding `O=C(Cn1c(-c2cccc(Cl)c2)nn(-c2ccc(CCN3CCOCC3)cc2)c1=O)NCC1CC1` [Ad-6, 2-[3-(3-Chlorophenyl)-1-{4-[2-(morpholin-4-yl)ethyl]phenyl}-5-oxo-1,5-dihydro-4H-1,2,4-triazol-4-yl]-N-(cyclopropylmethyl)acetamide], the pIC50 is 7.21.

As for `CC(C)NC(=O)Cn1c(-c2cccc(Cl)c2)nn(-c2ccc(CCN3CCOCC3)c(F)c2)c1=O` [Ad-7, 2-[3-(3-Chlorophenyl)-1-{3-fluoro-4-[2-(morpholin-4-yl)ethyl]phenyl}-5-oxo-1,5-dihydro-4H-1,2,4-triazol-4-yl]-N-(propan-2-yl)acetamide], the negative-log IC50 (pIC50) was 8.42.

Compound `CC(C)NC(=O)Cn1c(-c2cccc(Cl)c2)nn(-c2ccc(CCN3C4CCC3COC4)c(F)c2)c1=O` [Ad-8, 2-[3-(3-Chlorophenyl)-1-{3-fluoro-4-[2-(3-oxa-8-azabicyclo[3.2.1]oct-8-yl)ethyl]phenyl}-5-oxo-1,5-dihydro-4H-1,2,4-triazol-4-yl]-N-(propan-2-yl)acetamide] showed a pIC50 of 8.82.

Turning to `COc1cc(-n2nc(-c3cccc(Cl)c3)n(CC(=O)NC(C)C)c2=O)ccc1CCN1CCOCC1` [Ad-9, 2-[3-(3-Chlorophenyl)-1-{3-methoxy-4-[2-(morpholin-4-yl)ethyl]phenyl}-5-oxo-1,5-dihydro-4H-1,2,4-triazol-4-yl]-N-(propan-2-yl)acetamide], the pIC50 is 8.64.

Compound `COc1cc(-n2nc(-c3cccc(Cl)c3)n(CC(=O)NC(C)C)c2=O)ccc1CCN1C2CCC1COC2` [Ad-10, 2-[3-(3-Chlorophenyl)-1-{3-methoxy-4-[2-(3-oxa-8-azabicyclo[3.2.1]oct-8-yl)ethyl]phenyl}-5-oxo-1,5-dihydro-4H-1,2,4-triazol-4-yl]-N-(propan-2-yl)acetamide] gave a pIC50 of 8.89.

Regarding `CC(C)NC(=O)Cn1c(-c2cccc(Cl)c2)nn(-c2ccc(CC(C)N3CCOCC3)cc2)c1=O` (centres unmarked) [Ad-13, 2-[3-(3-Chlorophenyl)-1-{4-[2-(morpholin-4-yl)propyl]phenyl}-5-oxo-1,5-dihydro-4H-1,2,4-triazol-4-yl]-N-(propan-2-yl)acetamide], the pIC50 is 8.54. Compared with the last compound, the pIC50 is 0.35 log units lower.

`CC(C)NC(=O)Cn1c(-c2cccc(Cl)c2)nn(-c2ccc(CC(C)N3C4CCC3COC4)cc2)c1=O` (centres unmarked) [Ad-14, 2-[3-(3-Chlorophenyl)-1-{4-[2-(3-oxa-8-azabicyclo[3.2.1]oct-8-yl)propyl]phenyl}-5-oxo-1,5-dihydro-4H-1,2,4-triazol-4-yl]-N-(propan-2-yl)acetamide]: the pIC50 is 9.27.

Regarding `CC(C)NC(=O)Cn1c(-c2cccc(Cl)c2)nn(-c2ccc(CC(C)N3CCOCC3)cn2)c1=O` (centres unmarked) [Ad-15, 2-[3-(3-Chlorophenyl)-1-{5-[2-(morpholin-4-yl)propyl]pyridin-2-yl}-5-oxo-1,5-dihydro-4H-1,2,4-triazol-4-yl]-N-(propan-2-yl)acetamide], the pIC50 is 8.29.

`CC(C)NC(=O)Cn1c(-c2cccc(Cl)c2)nn(-c2ccc(CC(C)N3C4CCC3COC4)cn2)c1=O` (centres unmarked) [Ad-16, 2-[3-(3-Chlorophenyl)-1-{5-[2-(3-oxa-8-azabicyclo[3.2.1]oct-8-yl)propyl]pyridin-2-yl}-5-oxo-1,5-dihydro-4H-1,2,4-triazol-4-yl]-N-(propan-2-yl)acetamide] had a pIC50 of 9.04.

`CC(C)(C)NC(=O)Cn1c(-c2cccc(Cl)c2)nn(-c2ccc(CCN3CCOCC3)cn2)c1=O` [Ad-17, N-Tert-Butyl-2-[3-(3-chlorophenyl)-1-{5-[2-(morpholin-4-yl)ethyl]pyridin-2-yl}-5-oxo-1,5-dihydro-4H-1,2,4-triazol-4-yl]acetamide]: the pIC50 is 8.46.

Compound `CC(C)(C)NC(=O)Cn1c(-c2cccc(Cl)c2)nn(-c2ccc(CCN3C4CCC3COC4)cn2)c1=O` [Ad-18, N-Tert-Butyl-2-[3-(3-chlorophenyl)-1-{5-[2-(3-oxa-8-azabicyclo[3.2.1]oct-8-yl)ethyl]pyridin-2-yl}-5-oxo-1,5-dihydro-4H-1,2,4-triazol-4-yl]acetamide] showed a negative-log IC50 (pIC50) of 8.59. This pIC50 and that of the compound before are within 0.2 log units of each other.

The compound `CC(C)NC(=O)Cn1c(-c2cccc(Cl)c2)nn(-c2ccc(CCN)cc2)c1=O` [Ad-21, 2-[3-(3-Chlorophenyl)-1-[4-(2-aminoethyl)phenyl]-5-oxo-1,5-dihydro-4H-1,2,4-triazol-4-yl]-N-(propan-2-yl)acetamide] gave a negative logarithm of the IC50 (pIC50) of 6.44. This pIC50 lies 2.15 log units lower than the previous one.

`COc1cccc(-c2nn(-c3ccc(CCN4C5CCC4COC5)cc3)c(=O)n2CC(=O)NC(C)C)c1` [Ba-3, 2-[3-(3-Methoxyphenyl)-1-{4-[2-(3-oxa-8-azabicyclo[3.2.1]oct-8-yl)ethyl]phenyl}-5-oxo-1,5-dihydro-4H-1,2,4-triazol-4-yl]-N-(propan-2-yl)acetamide] had a pIC50 of 8.03.

With `COc1cccc(-c2nn(-c3ccc(CCN4CCOCC4)cn3)c(=O)n2CC(=O)NC(C)(C)C)c1` [Bd-1, N-Tert-Butyl-2-[3-(3-methoxyphenyl)-1-{5-[2-(morpholin-4-yl)ethyl]pyridin-2-yl}-5-oxo-1,5-dihydro-4H-1,2,4-triazol-4-yl]acetamide], the pIC50 is 8.39.

`COc1cccc(-c2nn(-c3ccc(CCN4C5CCC4COC5)cn3)c(=O)n2CC(=O)NC(C)(C)C)c1` [Bd-2, N-Tert-Butyl-2-[3-(3-methoxyphenyl)-1-{5-[2-(3-oxa-8-azabicyclo[3.2.1]oct-8-yl)ethyl]pyridin-2-yl}-5-oxo-1,5-dihydro-4H-1,2,4-triazol-4-yl]acetamide] showed a pIC50 of 8.44.

The compound `COc1cccc(-c2nn(-c3ccc(CC(C)N4C5CCC4COC5)cc3)c(=O)n2CC(=O)NC(C)(C)C)c1` (centres unmarked) [Bd-3, N-Tert-Butyl-2-[3-(3-methoxyphenyl)-1-{4-[2-(3-oxa-8-azabicyclo[3.2.1]oct-8-yl)propyl]phenyl}-5-oxo-1,5-dihydro-4H-1,2,4-triazol-4-yl]acetamide] showed a pIC50 of 9.68.

`COc1cccc(-c2nn(-c3ccc(CC(C)N4C5CCC4COC5)cn3)c(=O)n2CC(=O)NC(C)(C)C)c1` (centres unmarked) [Bd-4, N-Tert-Butyl-2-[3-(3-methoxyphenyl)-1-{5-[2-(3-oxa-8-azabicyclo[3.2.1]oct-8-yl)propyl]pyridin-2-yl}-5-oxo-1,5-dihydro-4H-1,2,4-triazol-4-yl]acetamide] showed a pIC50 of 9.36.

In turn, `COc1cc(-c2nn(-c3ccc(CCN4CCCCC4)cc3)c(=O)n2CC(=O)NC(C)C)ccc1F` [Ca-1, 2-[3-(4-Fluoro-3-methoxyphenyl)-5-oxo-1-{4-[2-(piperidin-1-yl)ethyl]phenyl}-1,5-dihydro-4H-1,2,4-triazol-4-yl]-N-(propan-2-yl)acetamide] gave a pIC50 of 7.59.

`COc1cc(-c2nn(-c3ccc(CCN4C5CCC4COC5)cc3)c(=O)n2CC(=O)NC(C)C)ccc1F` [Ca-5, 2-[3-(4-Fluoro-3-methoxyphenyl)-1-{4-[2-(3-oxa-8-azabicyclo[3.2.1]oct-8-yl)ethyl]phenyl}-5-oxo-1,5-dihydro-4H-1,2,4-triazol-4-yl]-N-(propan-2-yl)acetamide] had a pIC50 of 8.36. This pIC50 lies 0.77 log units higher than the previous one.

Compound `COc1cc(-c2nn(-c3ccc(CCN4CC5(CCOCC5)C4)cc3)c(=O)n2CC(=O)NC(C)C)ccc1F` [Ca-6, 2-[3-(4-Fluoro-3-methoxyphenyl)-1-{4-[2-(7-oxa-2-azaspiro[3.5]non-2-yl)ethyl]phenyl}-5-oxo-1,5-dihydro-4H-1,2,4-triazol-4-yl]-N-(propan-2-yl)acetamide] showed a pIC50 of 7.00 to 8.00.
